Source: patent publication US3948898A, “1,3-Dioxo-2-aminoalkyl-4,4-dimethyl-isoquinolines and salts thereof” (Boehringer Ingelheim GmbH, priority 1973, dated 1976)
Counter-ions that a name gives are not always drawn.

Tests used:
[1] = hypotensive activity in anesthetized mongrel dogs (i.v.); type: in vivo
Procedure: The test compounds were injected intravenously into the vena saphena in aqueous solution. The arterial bloodpressure was measured before and after administration in the arteria femoralis by means of a […]-pressure transducer and registered on a Grass-polygraph.

[2] = acute toxicity in mice after oral application (LD50); conditions: mouse, in vivo, p.o., observation time 14 days
Procedure: The acute toxicity of the compounds was tested in mice (observation time: 14 days) after oral application. The LD50 was calculated from the percentage of the animals which died within the observation time after application of varying doses [see J. Pharmacol. exper. Therap.

Row | Structure (SMILES) | Decrease of bloodpressure diast. ([1]; 0.05 mg/kg i.v.) [mm Hg] | Decrease of bloodpressure syst. ([1]; 0.05 mg/kg i.v.) [mm Hg] | Duration of activity ([1]; 0.05 mg/kg i.v.) [min] | Decrease of bloodpressure diast. ([1]; 0.1 mg/kg i.v.) [mm Hg] | Decrease of bloodpressure syst. ([1]; 0.1 mg/kg i.v.) [mm Hg] | Duration of activity ([1]; 0.1 mg/kg i.v.) [min] | LD50 at 336 h [2] [mg/kg] | Decrease of bloodpressure diast. ([1]; 0.5 mg/kg i.v.) [mm Hg] | Decrease of bloodpressure syst. ([1]; 0.5 mg/kg i.v.) [mm Hg] | Duration of activity ([1]; 0.5 mg/kg i.v.) [min] | Decrease of bloodpressure diast. ([1]; 1.0 mg/kg i.v.) [mm Hg] | Decrease of bloodpressure syst. ([1]; 1.0 mg/kg i.v.) [mm Hg] | Duration of activity ([1]; 1.0 mg/kg i.v.) [min]
1 | COc1ccccc1N1CCN(CCN2C(=O)c3ccccc3C(C)(C)C2=O)CC1.Cl.Cl [A, 1-[4,4-dimethyl-1,3-dioxo-(2H,4H)-isoquinolin-2-yl]-2-[4-(2-methoxy-phenyl)-piperazin-1-yl]-ethane dihydrochloride] | -31 | -27 | 53 | -34 | -33 | 47 | 850 | – | – | – | – | – | –
2 | COc1ccc2c(c1)C(=O)N(CCCNCCc1ccc(OC)c(OC)c1)C(=O)C2(C)C [B, 1-[4,4-dimethyl-7-methoxy-1,3-dioxo-(2H,4H)-isoquinolin-2-yl]-3-[2-(3,4-dimethoxy-phenyl)-ethylamine]propane hydrochloride] | – | – | – | – | – | – | 775 | -36 | -32 | 35 | -40 | -36 | 40
